# Patent US20030073731A1, “Compositions and methods of the use thereof achiral analogues of CC-1065 and the duocarmycins” (priority 2000, published 2003)
# Like-named read-outs stand apart in the source and are kept apart here.
# Columns and labels:
# A549/ATCC [1] = system: A549/ATCC
# SW-620 [2] = system: SW-620
# 786-0 [3] = system: 786-0
# SK-MEL-2 [4] = system: SK-MEL-2
# HT29 [5] = system: HT29
# A549/ATCC [6] = assay: cells; details: Homo sapiens, A549, read-out: LC50
# SK-MEL-5 = assay: cells; details: Homo sapiens
# M14 = assay: cells; details: Homo sapiens
# PC-3 = assay: cells; details: Homo sapiens
# LOX IMVI = assay: cells; details: Homo sapiens
# RXF 393 = assay: NCI in-vitro cytotoxicity screen, Renal Cancer panel; type: cell-based; details: Homo sapiens
# Description: (§1) The compounds of this invention were also tested against the panel of 60 human cancer cell lines at the National Cancer Institute, Bethesda, Md. […] The cytotoxicity studies were conducted using a 48 hour exposure, and measuring the optical density of sulforhodamine B-derived color.
# MDA-MB-435 = assay: cells; details: Homo sapiens
# [7] = system: panel of 60 human cancer cell lines; details: 48 hour exposure
# SF-268 = assay: cells; details: Homo sapiens
# RPMI-8226 = assay: cells; details: Homo sapiens
# SK-MEL-2 [8] = assay: cells; details: Homo sapiens
# SW-620 [9] = assay: cells; details: Homo sapiens
# A498 = assay: NCI in-vitro cytotoxicity screen, Renal Cancer panel; type: cell-based; details: Homo sapiens
# Description: as §1
# U251 = assay: cells; details: Homo sapiens
# SK-OV-3 = assay: cells; details: Homo sapiens
# HCC-2998 = assay: cells; details: Homo sapiens
# K-562 = assay: cells; details: Homo sapiens
# 786-0 [10] = assay: cells; details: Homo sapiens
# NCI-H226 = assay: cells; details: Homo sapiens
# HT29 [11] = assay: cells; details: Homo sapiens
compound,measurement,setting,value
4-(2-Chloroethyl)-3-[5-(5-benzofuran-2-carboxamido)indole-2-carboxamido]phenol [Compound 1],GI50,UO-31,3000 nM
same,TGI,UO-31,6.38E-06 Molar
same,GI50,A549/ATCC [1],1980 nM
same,TGI,A549/ATCC [1],6.58E-06 Molar
same,GI50,UACC-62,1970 nM
same,TGI,UACC-62,3.49E-06 Molar
same,GI50,SNB-75,18600 nM
same,TGI,SNB-75,3.32E-05 Molar
same,GI50,SW-620 [2],2010 nM
same,TGI,SW-620 [2],8.19E-06 Molar
same,GI50,HCT-15,1910 nM
same,TGI,HCT-15,4.89E-06 Molar
same,GI50,786-0 [3],2620 nM
same,TGI,786-0 [3],1.07E-05 Molar
same,GI50,SK-MEL-2 [4],1320 nM
same,TGI,SK-MEL-2 [4],2.67E-06 Molar
same,GI50,NCI-H522,933 nM
same,TGI,NCI-H522,3.00E-06 Molar
same,GI50,HS 578T,11800 nM
same,TGI,HS 578T,3.96E-06 Molar
same,GI50,HT29 [5],2290 nM
same,TGI,HT29 [5],1.115E-05 Molar
same,GI50,SNB-19,3530 nM
same,TGI,SNB-19,1.38E-05 Molar
same,GI50,HOP-62,453 nM
same,TGI,HOP-62,3.07E-06 Molar
same,GI50,EKVX,1780 nM
same,TGI,EKVX,4.41E-06 Molar
same,GI50,NCI-H332M,2830 nM
same,TGI,NCI-H332M,9.60E-06 Molar
"COC(=O)c1[nH]c2c(O)cc(NC(=O)c3cc4cc(OC)c(OC)c(OC)c4[nH]3)c(CCCl)c2c1C(=O)OC [Compound 22, Dimethyl 4-(2-chloroethyl)-7-hydroxy-5-(5,6,7-trimethoxyindole-2-carboxamido)indole-2,3-dicarboxylate]",CC50,A549/ATCC [6],< 50000 nM
same,GI50,SK-MEL-5; SK-MEL-5,32.3 nM
same,CC50,"SK-MEL-5; SK-MEL-5, read-out: LC50",> 50000 nM
same,GI50,M14; M14,76.4 nM
same,CC50,"M14; M14, read-out: LC50",368 nM
same,GI50,PC-3; PC-3,61.7 nM
same,CC50,"PC-3; PC-3, read-out: LC50",10500 nM
same,GI50,LOX IMVI,81.7 nM
same,CC50,LOX IMVI; read-out: LC50,25600 nM
same,GI50,RXF 393; RXF 393,74.7 nM
same,CC50,"RXF 393; RXF 393, read-out: LC50",21500 nM
same,GI50,MDA-MB-435; MDA-MB-435,137 nM
same,CC50,"MDA-MB-435; MDA-MB-435, read-out: LC50",> 50000 nM
same,cytotoxic activity in the NCI screen,[7],activity in the micromolar range
same,GI50,SF-268; SF-268,13.8 nM
same,CC50,"SF-268; SF-268, read-out: LC50",1170 nM
same,GI50,RPMI-8226; RPMI-8226,190 nM
same,CC50,"RPMI-8226; RPMI-8226, read-out: LC50",> 50000 nM
same,GI50,SK-MEL-2 [8]; SK-MEL-2,83.9 nM
same,CC50,"SK-MEL-2 [8]; SK-MEL-2, read-out: LC50",339 nM
same,GI50,SW-620 [9]; SW-620,109 nM
same,CC50,"SW-620 [9]; SW-620, read-out: LC50",> 50000 nM
same,GI50,A498; A498,164 nM
same,CC50,"A498; A498, read-out: LC50",20700 nM
same,GI50,U251; U-251,120 nM
same,CC50,"U251; U-251, read-out: LC50",> 50000 nM
same,GI50,SK-OV-3; SK-OV-3,269 nM
same,CC50,"SK-OV-3; SK-OV-3, read-out: LC50",44600 nM
same,GI50,HCC-2998; HCC 2998,102 nM
same,CC50,"HCC-2998; HCC 2998, read-out: LC50",10800 nM
same,GI50,K-562; K562,315 nM
same,CC50,"K-562; K562, read-out: LC50",> 50000 nM
same,GI50,786-0 [10]; 786-0,123 nM
same,CC50,"786-0 [10]; 786-0, read-out: LC50",> 50000 nM
same,GI50,NCI-H226; NCI-H226,74.8 nM
same,CC50,"NCI-H226; NCI-H226, read-out: LC50",2550 nM
same,GI50,HT29 [11]; HT-29,68.1 nM
same,CC50,"HT29 [11]; HT-29, read-out: LC50",2340 nM
